Measured values as given in US10390536B2, “Methods, compounds and compositions for repelling insects and/or arachnids” (National Center for Scientific Research “Demokritos”, priority 2013, dated 2019).

Experiments:
Format in all cases: in vivo
Anopheles gambiae s.l. = experiment: experimental hut field trial of spatial repellence, Anopheles; settings: single compound, 1 ml in open vial in MM-X trap, per night
Method: (§1) To test the effects of repellent compounds or compositions disclosed herein on mosquitoes in a controlled environment resembling actual living quarters and conditions, field trials with standardized experimental huts were conducted at Kainji Dam in North Central Nigeria.
(§2) Six such huts were built in a straight line, and the distance between huts was 11 meters. These huts follow a traditional square design, the walls are built with concrete blocks that are subsequently plastered with cement, each wall has a window. The ceiling is plywood and the roof is thatched with eaves that are open, thereby allowing free flow of air into and out of the hut, and thus entry and exit of mosquitoes. There is a door for entry and exit. Two opposing sides of each hut have window exit traps and screened verandas to capture mosquitoes leaving via the windows or eaves. Each hut is raised off the ground on a concrete platform and surrounded by a moat filled with water in order to prevent ants from entering. Each hut is fitted with a mattress and an untreated bed net for sleepers. These huts are similar in design and concept to those used previously elsewhere for studying mosquito behavior and measuring the efficacy of various mosquito control products or intervention methods in Tanzania and Gambia. For design parameters refer to WHOPES 2005. The huts are adjacent to a tributary of the River Niger at a distance of 10 km from the Kainji Dam site and face rice fields known to harbor permanent mosquito breeding sites. The mosquitoes endemic to this area of Nigeria are highly endophillic, that is, they rest mainly indoors.
(§3) Human volunteers that participated as sleepers in this field trial were provided with anti-malarial chemical prophylaxis on a weekly basis, and the protocols used herein were reviewed and approved by the Research Ethics Review Committee of the Nigerian Institute of Medical Research. Six male adult volunteers, aged between 25 and 35 years old, were recruited to sleep in the huts described above. Sleepers were allocated to huts randomly for each series of trials, and this randomization process occurred nightly. The volunteers entered the huts by 21:00 each night and remained inside the huts until 06:30 the following morning. Each morning, the windows were closed and the exit traps blocked with a piece of cloth to prevent mosquitoes that entered from exiting. The traps were then put in a freezer at −20° C. to kill all the mosquitoes before being emptied for identification. By means of a sucking aspirator the verandas and rooms were visually searched for live mosquitoes and any insects found were collected in labelled cups. A 10-minute search was conducted for each hut (room and veranda traps). The exit traps were emptied into a labelled cup and all the mosquitoes placed in the freezer at −20° C. for about 30 minutes before morphological identification.
(§4) The Mosquito Magnet trap Model-X (MM-X trap made by the firm formerly known as American Biophysics (ABC), USA) is a 12V battery operated counter-flow trap that was used as the repellent dispersing device to evaluate the efficacy of repellent compounds or compositions disclosed herein. Four compounds, carvacrol, cumin alcohol, ethyl cinnamate, and butyl cinnamate, were evaluated in comparison to DEET as a nonproprietary conventional repellent in a first experiment. The chemical compounds were provided in liquid form: carvacrol (98%), butyl cinnamate (98%), ethyl cinnamate (98%), cumin alcohol (97%) and DEET (97%). […]

Culex spp. = experiment: experimental hut field trial of spatial repellence, Culex; settings: single compound, 1 ml in open vial in MM-X trap, per night
Method: as §1, §2, §3, §4

[1] = test system: Anopheles gambiae (Giles) ss strain 16CSS female mosquitoes; experiment: warm body repellence assay (mosquito landings); settings: for median repellency (%) at 20 nmol/cm2: Anopheles gambiae, 2 min, 20 nmole per cm^2, read-out: Median Repellency (%)
Method: To test the behavior of female mosquitoes to an essential oil containing OBP binding components, a previously described repellence assay [Kröber et al. (2010). An In Vitro Assay for Testing Mosquito Repellents Employing a Warm Body and Carbon Dioxide as a Behavioral Activator. Journal of the American Mosquito Control Association 26(4) 381-386] was conducted that measures the number of mosquito landings on a warm surface onto which an essential oil containing at least one candidate compound was applied.
To conduct a repellency assay, a selected essential oil or ethanol negative control was applied to a warm body at a dose of about 3.8 μg/cm^2 and allowed to dry for 40 seconds in order to allow evaporation of the solvent before introduction into the test cage with mosquitoes. As positive control for repellence, DEET dissolved in ethanol was applied to the warm body at the same dose. The treated warm body in conjunction with a pulse of carbon dioxide was introduced into the test cage containing fifty Anopheles gambiae (Giles) ss strain 16CSS female mosquitoes that were 4-11 days old and the number of mosquito landings on the warm body occurring within a 2-minute period was counted. Each candidate compound was tested in five different cages (i.e., 250 female mosquitoes) in a randomized design, and the ethanol control and up to four candidate compounds were tested in each cage. Raw data on numbers of landings by mosquitoes were analyzed using a linear mixed model accounting for treatment, experimental day, the individual cage, the number of females per cage and the level of the carbon dioxide pulse in ppm using R (R Development Core Team, 2010) and the packages LME4 (Bates and Maechler, Ime4: Linear mixed-effects models using {S4} classes.{R} package version 0.999375-32, 2009) and NLME (Pinheiro et al, nlme: Linear and Nonlinear Mixed Effects Models, 2010; the R Development Core Team, R: A Language and Environment for Statistical Computing, 2010). Repellent values were calculated from counted landings on treatments versus the overall landings on pooled controls.
To test the behavior of female mosquitoes to a candidate compound identified in Example 5, behavioral assays were made using the identified compounds. The repellent assay was performed as described in Example 3, except that candidate compounds were dissolved in ethanol and tested initially at doses between 1.0 and 5.0 μg/cm^2 (about 5-31.5 nmole/cm^2) and, whenever necessary, at lower and/or higher doses as well. Besides the compounds identified in Example 5, compounds related to these were also tested including ethyl-cinnamate and butyl-cinnamate (Table 4).
To test the behavior of female mosquitoes to various combinations of candidate compounds identified in Example 6, repellence assays were made as in Example 3. These repellent assays were made to compare the effectiveness of the strongest repellent compounds identified in Example 6, including, without limitation, carvacrol, ethyl cinnamate, butyl cinnamate, and cumin alcohol with that of DEET.
The doses tested were 2, 4, 6 10 and 20 nmol/cm^2 for the single compounds. The binary 50:50 mixtures were tested at 2, 6, 10 and 20 nmol/cm^2, with each compound making up half the amount tested, so that, for example, the 2 nmol/cm^2 concentration in column A+B represents 1 nmol/cm^2 of A and 1 nmol/cm^2 of B in a binary mixture. DEET was also tested at 25 nmol (top response) and carvacrol was tested at the additional dose of 2.5 nmol (second from left within its column). As an indication, DEET at 20 nmol/cm^2=3.8 μg/cm^2. Mosquitoes were activated using a puff of CO2 from a gas tank upon introduction of the warm body into the test cage containing 50±5 A. gambiae females and mosquito landings were counted for 2 minutes. Each treatment (dose) was tested using five test cages, i.e. on a total of 250 female A. gambiae. […]

[2] = test system: sand fly Lutzomyia longipalpis; experiment: warm body repellence assay with sand flies; settings: 2 minutes, control 48
Method: To test the effects of repellent compounds or compositions disclosed herein on other blood-feeding arthropods, a warm body repellence assay (Krober et. al. (2010). An In Vitro Assay for Testing Mosquito Repellents Employing a Warm Body and Carbon Dioxide as a Behavioral Activator. Journal of the American Mosquito Control Association 26(4): 381-386] was conducted using the sand fly Lutzomyia longipalpis (Diptera: Psychodidae), the principal vector of Leishmania (or leismaniasis) in the Americas.
[…] Fifty L. longipalpis sandflies (male:female ratio 1:1) of 3-7 days old were tested during the scotophase under conditions described for A. gambiae in Example 6. The test cages were lined with filter paper. Reduction in the number of landings by L. longipalpis sand fly females on a warm body treated with different test products compared to the control with solvent (ethanol p.a.) alone was used to evaluate repellence. Tests were conducted in complete darkness using IR LEDs to illuminate the warm body. Landings counted during 2 minutes were normalized by experimental day, cage, and number of females by a mixed linear model before testing for differences.

[3] = 2 nmol (per cm^2, total for mixtures, 50:50)
[4] = 4 nmol (per cm^2, total for mixtures, 50:50)
[5] = 6 nmol (per cm^2, total for mixtures, 50:50)
[6] = 20 nmol (per cm^2, total for mixtures, 50:50)

Structure (SMILES)	spatial repellent effect, induced exophily (in words) (Anopheles gambiae s.l.)	spatial repellent effect, induced exophily (in words) (Culex spp.)	Median repellence % [1, 3] [%]	Median repellence % [1, 4] [%]	Median repellence % [1, 5] [%]	Median repellence % [1, 6] [%]	median repellency (%) at 20 nmol/cm2 [1] [%]	Median repellence % ([1]; 10 nmol (per cm^2, total for mixtures, 50:50)) [%]	Median of landings ([2]; 20 nmol/cm^2)	Median of landings ([2]; 200 nmol/cm^2)
CCOC(=O)C=Cc1ccccc1 [(E)-ethyl-cinnamate, ethyl 3-phenylprop-2-enoate]	significantly lower than that of DEET	significantly lower than that of DEET	−18	18	35	83	82.8	–	–	–
CCCCOC(=O)C=Cc1ccccc1 [butyl-cinnamate, butyl 3-phenylprop-2-enoate]	significantly lower than that of DEET	significantly lower than that of DEET	−1	28	61	89	88.7	68	49	40
